These results are taken from ChEMBL document CHEMBL3046290, “Metabolic effects of benzylidene thiazolidinedione derivatives in high-fat fed mice” (Med Chem Res, 2012).

In data set [1] the test system is Mus musculus. The experiment in a line: Antihyperglycemic activity in high-fat fed Mus musculus Swiss albino (mouse) assessed as reduction of insulin resistance index at 30 mg/kg, po qd for 15 days. Further details: scale not given: the % may be the effect or the level left. Format: functional.
The test system of data set [2] is Mus musculus. The experiment in a line: Antihyperglycemic activity in high-fat fed Mus musculus Swiss albino (mouse) assessed as reduction of fasting serum insulin level at 30 mg/kg, po qd for 15 days. It counts as functional. Details: scale not given: the % may be the effect or the level left.
For data set [3], the system named is Mus musculus. The experiment in a line: Antihyperglycemic activity in high-fat fed Mus musculus Swiss albino (mouse) assessed as reduction of fasting serum glucose level at 30 mg/kg, po qd for 15 days. Format: functional. Further details: scale not given: the % may be the effect or the level left.
In data set [4] the test system is Mus musculus. The experiment in a line: Toxicity in high-fat fed Mus musculus Swiss albino (mouse) assessed as change in body weight at 30 mg/kg, po qd for 15 days (reference value: 39.9 +/- 1.3 g). Further details: dose 30 mg/kg, route oral. It counts as organism-based. The conditions noted are these: in vivo, 360 h.
The subject of data set [5] is Mus musculus. The experiment in a line: Antihyperlipidemic activity in high-fat fed Mus musculus Swiss albino (mouse) assessed as reduction of serum cholesterol level at 30 mg/kg, po qd for 15 days. Format: functional. Details: scale not given: the % may be the effect or the level left.
The subject of data set [6] is Mus musculus. The experiment in a line: Antihyperlipidemic activity in high-fat fed Mus musculus Swiss albino (mouse) assessed as reduction of serum triglyceride level at 30 mg/kg, po qd for 15 days. Details: scale not given: the % may be the effect or the level left. It counts as functional.

Each structure is given as a SMILES string.

Regarding `COc1ccc(/C=C2\SC(=O)N(Cc3ccc(C)cc3)C2=O)cc1`, the Activity in the data set on Mus musculus [1] was 81%; with Mus musculus [2], 65%; in the data set with Mus musculus [3] it was 46%; in the data set with Mus musculus [4] it was 5.12 g; in the data set with Mus musculus [5] it was 27%; in the data set on Mus musculus [6], 44%.
On to `COc1ccc(/C=C2\SC(=O)N(Cc3ccc(C)cc3)C2=O)c(OC)c1`, for which the Activity in the data set on Mus musculus [1] is given as 57%; in the data set on Mus musculus [2] it was 33%; in the data set with Mus musculus [3] it was 36%; with Mus musculus [4], 6.06 g; in the data set with Mus musculus [5], 36%; in the data set with Mus musculus [6] it was 38%.
Turning to `Cc1ccc(CN2C(=O)S/C(=C\c3ccc(N(C)C)cc3)C2=O)cc1`, the Activity in the data set with Mus musculus [1] is 73%; with Mus musculus [2] it was 56%; with Mus musculus [3] it was 38%; in the data set with Mus musculus [4], 5.88 g; in the data set on Mus musculus [5], 22%; with Mus musculus [6], 23%.
With `Cc1ccc(CN2C(=O)S/C(=C\c3ccc(Cl)cc3)C2=O)cc1`, the Activity in the data set with Mus musculus [1] is recorded as 49%; in the data set with Mus musculus [2], 27%; in the data set on Mus musculus [3], 29%; with Mus musculus [4], 6.71 g; in the data set with Mus musculus [5], 40%; in the data set on Mus musculus [6], 42%.
As for `CN(CCOc1ccc(CC2SC(=O)NC2=O)cc1)c1ccccn1` (stereo not given) [ROSIGLITAZONE], the Activity is listed as 71% with Mus musculus [1]; 48% with Mus musculus [2]; 44% in the data set with Mus musculus [3]; 5.28 g with Mus musculus [4]; 35% in the data set on Mus musculus [5]; 43% with Mus musculus [6].
